# Where two headings read alike, the source gives them in different places.
# Columns and labels:
# [1] = system: CYP3A4 (testosterone); details: ref He et al. (2015); cited from earlier work
# [2] = biological target: T1, CYP1A2 (Homo sapiens, UniProt P05177); details: ref He et al. (2015); cited from earlier work
# T1 sequence (P05177 1-516): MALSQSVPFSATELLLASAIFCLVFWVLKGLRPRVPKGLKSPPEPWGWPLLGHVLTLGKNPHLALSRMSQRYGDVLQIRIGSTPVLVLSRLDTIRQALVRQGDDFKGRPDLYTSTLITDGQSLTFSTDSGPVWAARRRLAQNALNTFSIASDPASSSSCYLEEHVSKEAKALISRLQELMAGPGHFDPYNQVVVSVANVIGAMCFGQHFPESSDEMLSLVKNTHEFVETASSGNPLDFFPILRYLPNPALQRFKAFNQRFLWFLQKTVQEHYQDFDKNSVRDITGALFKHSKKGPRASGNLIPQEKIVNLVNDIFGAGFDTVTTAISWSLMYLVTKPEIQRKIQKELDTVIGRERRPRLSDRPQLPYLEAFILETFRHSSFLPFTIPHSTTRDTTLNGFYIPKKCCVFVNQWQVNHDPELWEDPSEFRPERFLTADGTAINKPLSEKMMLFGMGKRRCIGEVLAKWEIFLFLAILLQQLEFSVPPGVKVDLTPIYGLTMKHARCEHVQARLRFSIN
# [3] = biological target: CYP2D6 (Homo sapiens, UniProt P10635); test: Cocktail assay IC50 determination in human liver microsomes; details: substrate dextromethorphan, mean ± standard deviation
# Chain of CYP2D6 (P10635 whole entry): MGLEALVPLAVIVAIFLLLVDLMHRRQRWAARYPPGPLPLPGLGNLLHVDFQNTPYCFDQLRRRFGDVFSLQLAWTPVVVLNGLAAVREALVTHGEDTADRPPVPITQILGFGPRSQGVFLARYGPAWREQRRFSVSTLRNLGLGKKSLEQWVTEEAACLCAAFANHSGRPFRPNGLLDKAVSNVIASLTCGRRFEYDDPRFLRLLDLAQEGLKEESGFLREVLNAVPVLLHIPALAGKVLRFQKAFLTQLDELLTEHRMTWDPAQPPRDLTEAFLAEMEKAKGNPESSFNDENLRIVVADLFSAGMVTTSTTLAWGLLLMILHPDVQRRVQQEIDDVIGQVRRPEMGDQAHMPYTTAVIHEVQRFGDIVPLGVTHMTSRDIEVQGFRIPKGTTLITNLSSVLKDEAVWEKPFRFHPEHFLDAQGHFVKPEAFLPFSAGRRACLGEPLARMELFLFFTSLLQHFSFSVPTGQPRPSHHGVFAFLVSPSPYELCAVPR
# [4] = biological target: CYP3A4 (midazolam) (Homo sapiens, UniProt P08684); test: KI and kinact determination in human liver microsomes; format: in vitro ADME
# Chain of CYP3A4 (midazolam) (P08684 whole entry): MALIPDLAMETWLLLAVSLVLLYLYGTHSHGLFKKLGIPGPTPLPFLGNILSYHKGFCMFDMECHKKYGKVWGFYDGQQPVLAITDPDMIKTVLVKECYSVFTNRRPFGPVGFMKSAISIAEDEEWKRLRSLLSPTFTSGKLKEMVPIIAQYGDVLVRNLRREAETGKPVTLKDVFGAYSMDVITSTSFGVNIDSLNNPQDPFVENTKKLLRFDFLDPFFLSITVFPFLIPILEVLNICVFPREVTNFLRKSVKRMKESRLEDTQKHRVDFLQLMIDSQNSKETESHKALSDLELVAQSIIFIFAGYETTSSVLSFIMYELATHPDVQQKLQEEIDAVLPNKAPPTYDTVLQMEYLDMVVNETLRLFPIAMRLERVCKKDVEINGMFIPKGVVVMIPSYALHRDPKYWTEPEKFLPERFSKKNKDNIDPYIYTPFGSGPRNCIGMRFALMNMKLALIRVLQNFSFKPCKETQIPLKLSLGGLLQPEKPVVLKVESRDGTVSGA
# [5] = biological target: CYP2C9 (Homo sapiens, UniProt P11712); test: Single concentration; details: human liver microsomes
# Chain of CYP2C9 (P11712 whole entry): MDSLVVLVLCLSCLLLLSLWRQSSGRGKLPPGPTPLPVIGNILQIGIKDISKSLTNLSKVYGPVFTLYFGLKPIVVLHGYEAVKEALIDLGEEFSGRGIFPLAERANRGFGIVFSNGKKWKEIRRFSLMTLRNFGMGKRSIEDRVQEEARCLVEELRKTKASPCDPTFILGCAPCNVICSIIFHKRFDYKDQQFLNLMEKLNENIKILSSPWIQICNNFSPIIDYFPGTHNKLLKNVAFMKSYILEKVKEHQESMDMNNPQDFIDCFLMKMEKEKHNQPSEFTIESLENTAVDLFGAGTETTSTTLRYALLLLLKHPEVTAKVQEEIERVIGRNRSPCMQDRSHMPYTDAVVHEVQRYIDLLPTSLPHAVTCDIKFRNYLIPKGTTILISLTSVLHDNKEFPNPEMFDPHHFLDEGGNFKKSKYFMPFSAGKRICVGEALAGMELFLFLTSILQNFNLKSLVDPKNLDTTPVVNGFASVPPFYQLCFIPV
# [6] = biological target: T1, CYP1A2; test: Cocktail assay IC50 determination in human liver microsomes; details: substrate phenacetin, mean ± standard deviation
# [7] = biological target: T2, CYP3A4 (Homo sapiens, UniProt P08684); test: Single point time-dependent inhibition screening assay in human liver microsomes
# Target sequence in this assay (P08684 whole entry): as the sequence (P08684 whole entry) above
# [8] = system: CYP2C; details: ref He et al. (2015); cited from earlier work
# [9] = biological target: T2, CYP3A4; format: in vitro ADME; details: recombinant human CYP3A4, 20 µM
# Target sequence in this assay (P08684 2-503 limits assumed): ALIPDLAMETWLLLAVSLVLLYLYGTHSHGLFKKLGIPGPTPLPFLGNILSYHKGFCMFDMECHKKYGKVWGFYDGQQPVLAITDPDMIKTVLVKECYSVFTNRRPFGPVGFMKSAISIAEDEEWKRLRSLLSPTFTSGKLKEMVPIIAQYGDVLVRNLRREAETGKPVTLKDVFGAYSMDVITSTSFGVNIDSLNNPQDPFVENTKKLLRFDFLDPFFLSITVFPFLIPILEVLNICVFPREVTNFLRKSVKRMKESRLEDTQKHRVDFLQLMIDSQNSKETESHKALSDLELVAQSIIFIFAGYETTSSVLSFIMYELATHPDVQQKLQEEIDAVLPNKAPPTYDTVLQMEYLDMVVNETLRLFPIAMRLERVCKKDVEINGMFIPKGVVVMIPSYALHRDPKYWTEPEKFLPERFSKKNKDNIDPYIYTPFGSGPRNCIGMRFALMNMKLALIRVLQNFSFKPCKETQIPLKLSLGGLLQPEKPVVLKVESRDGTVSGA
# [10] = biological target: T3, CYP2C8 (Homo sapiens, UniProt P10632); test: Single concentration; details: human liver microsomes
# T3 sequence (P10632 1-490): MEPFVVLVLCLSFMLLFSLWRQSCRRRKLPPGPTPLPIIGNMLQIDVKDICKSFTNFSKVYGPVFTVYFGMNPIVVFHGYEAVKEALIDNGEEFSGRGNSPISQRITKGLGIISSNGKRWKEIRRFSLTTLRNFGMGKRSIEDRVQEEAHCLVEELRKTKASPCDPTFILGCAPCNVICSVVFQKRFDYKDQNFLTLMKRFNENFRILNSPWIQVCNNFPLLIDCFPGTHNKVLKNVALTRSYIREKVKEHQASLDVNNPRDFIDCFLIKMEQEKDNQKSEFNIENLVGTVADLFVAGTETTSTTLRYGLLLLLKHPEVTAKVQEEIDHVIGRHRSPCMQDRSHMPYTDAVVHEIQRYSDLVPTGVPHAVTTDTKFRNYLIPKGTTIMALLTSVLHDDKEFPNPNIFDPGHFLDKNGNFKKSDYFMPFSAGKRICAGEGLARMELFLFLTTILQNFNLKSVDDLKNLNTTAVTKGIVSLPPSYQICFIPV
# [11] = biological target: T3, CYP2C8; test: Cocktail assay IC50 determination in human liver microsomes; details: substrate amodiaquine, mean ± standard deviation
# [12] = system: cytochrome P450 enzymes; test: Single concentration; details: test concentration of 10 µM
# [13] = biological target: CYP2E1 (Homo sapiens, UniProt P05181); test: Cocktail assay IC50 determination in human liver microsomes; details: substrate chloroxazone
# Chain of CYP2E1 (P05181 whole entry): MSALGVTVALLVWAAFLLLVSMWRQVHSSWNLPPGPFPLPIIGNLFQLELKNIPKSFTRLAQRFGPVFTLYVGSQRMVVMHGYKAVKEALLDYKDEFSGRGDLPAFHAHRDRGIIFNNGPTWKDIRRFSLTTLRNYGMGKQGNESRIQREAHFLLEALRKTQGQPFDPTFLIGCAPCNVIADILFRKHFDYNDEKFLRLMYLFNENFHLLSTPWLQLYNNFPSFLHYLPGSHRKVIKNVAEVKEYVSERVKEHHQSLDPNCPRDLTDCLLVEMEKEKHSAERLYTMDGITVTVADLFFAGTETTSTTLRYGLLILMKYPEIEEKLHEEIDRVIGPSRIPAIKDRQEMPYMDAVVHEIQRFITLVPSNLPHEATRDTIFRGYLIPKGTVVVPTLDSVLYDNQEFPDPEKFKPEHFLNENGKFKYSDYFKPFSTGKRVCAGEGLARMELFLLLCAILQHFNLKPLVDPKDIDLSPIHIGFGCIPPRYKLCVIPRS
# [14] = biological target: T2, CYP3A4; test: Effect of washing to restore CYP3A4 activity, human liver microsomes; format: in vitro ADME; details: 50 µM, 30 min preincubation, washed 3 times, midazolam
# Target sequence in this assay (P08684 whole entry): as the sequence (P08684 whole entry) above
# [15] = biological target: T2, CYP3A4; test: Cocktail assay IC50 determination in human liver microsomes; details: mean ± standard deviation
# Target sequence in this assay (P08684 whole entry): as above
# [16] = biological target: T2, CYP3A4; test: Effect of washing to restore CYP3A4 activity, recombinant CYP3A4; format: in vitro ADME; details: recombinant CYP3A4, 10 µM, 30 min preincubation, washed 3 times, midazolam
# Target sequence in this assay (P08684 2-503 limits assumed): as the sequence (P08684 2-503 limits assumed) above
# [17] = biological target: T1, CYP1A2; test: Single concentration; details: human liver microsomes
smiles,measurement,setting,value
"C=CC(C)(C)c1cc(/C=C/C(=O)c2ccc(O)cc2)c(OC)cc1O [Licochalcone A, licochalcone A]","inhibition of CYP3A4 (testosterone), in words",[1],strongly inhibited
same,"inhibition of CYP1A2, in words",[2],strongly inhibited
same,"IC50, CYP2D6",[3],17.23 ± 1.68 µg/mL
same,Efficiency of inactivation,[4]; human liver microsomes,0.0033 µM⁻¹ min⁻¹
same,kinact for inactivation of CYP3A4 (midazolam),[4]; human liver microsomes,0.38 min⁻¹
same,"type of CYP3A4 inhibition, conclusion in words",[4]; human liver microsomes and recombinant CYP3A4,mechanism based inhibitor
same,KI (inactivation),"[4]; read-out: KI for inactivation of CYP3A4 (midazolam), human liver microsomes",116 µM
same,"inhibition of CYP2C9 at 10 µM, in words",[5],strongly inhibited
same,"IC50, CYP1A2",[6],12.40 ± 3.47 µg/mL
same,"time-dependent inhibition of CYP3A4 (midazolam), in words",[7],demonstrated time-dependent inhibition
same,"inhibition of CYP2C, in words",[8],strongly inhibited
same,% Control activity,"[9]; NADPH, 2 mM glutathione",32.4%
same,% Control activity,"[9]; NADPH, 1000 U/mL catalase",38.8%
same,% Control activity,"[9]; NADPH, 1000 U/mL superoxide dismutase",28.1%
same,% Control activity,"[9]; NADPH, mean of two experiments",42.0%
same,% Control activity,"[9]; without NADPH, mean of two experiments",100%
same,"inhibition of CYP2C8 at 10 µM, in words",[10],strongly inhibited
same,"IC50, CYP2C8",[11],1.05 ± 0.08 µg/mL
same,inhibition of one or more cytochrome P450 enzymes,[12],more than 50%
same,"IC50, CYP2E1",[13],>25 µg/mL
same,remaining enzyme activity after washing out the inhibitor,[14],57%
same,"IC50, CYP3A4 (midazolam)",[15]; substrate midazolam,16.05 ± 1.91 µg/mL
same,"IC50, CYP3A4 (testosterone)",[15]; substrate testosterone,6.78 ± 1.27 µg/mL
same,remaining enzyme activity after washing out the inhibitor,[16],16.7%
same,"inhibition of CYP1A2 at 10 µM, in words",[17],weakly inhibited

# — article PMC5656517 (European journal of pharmaceutical sciences : official …, 2017)
